Some results are limits rather than exact numbers.

HA-GST-Rheb (GTP-γ-S loaded) activating mTORC1, sequence (Q15382 1-181): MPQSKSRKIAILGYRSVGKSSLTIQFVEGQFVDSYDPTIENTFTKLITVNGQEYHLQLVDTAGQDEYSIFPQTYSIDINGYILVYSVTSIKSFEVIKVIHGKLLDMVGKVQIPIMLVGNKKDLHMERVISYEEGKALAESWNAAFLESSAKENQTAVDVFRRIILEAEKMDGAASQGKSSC

The test has as its target HA-GST-Rheb (GTP-γ-S loaded) activating mTORC1 (Homo sapiens (Human), UniProt Q15382). The experiment in a line: Rheb-dependent in vitro kinase assay (Rheb-IVK; LanthaScreen or Western readout). In kind it is biochemical. The following applies: Rheb-dependent in vitro kinase assay; read-out: IVK IC50. (In general: TR-FRET usually uses a lanthanide donor and a delayed reading to cut background.)
For orientation: IC50 means the concentration needed to halve the response being measured. As to `OCc1cc2c(Cl)cc(Oc3ccccc3)cc2n1Cc1c[nH]cn1` [I-174], the IC50 is over 100 µM.

Take `OCc1cc2c(Oc3ccc(F)cc3)cccc2[nH]1` [I-278, (4-(4-fluorophenoxy)-1H-indol-2-yl)methanol]: the IC50 lay in the range of 300 to 800 µM.

For the compound `CCn1c(CO)nc2cc(Cl)c(OCCc3ccccc3)cc21` [I-431], the concentration for half-maximal inhibition (IC50) is over 100 µM.

Regarding `OCc1cc2c(OCc3ccccc3)cc(Cl)cc2[nH]1` [I-294], the 50% inhibitory concentration (IC50) is over 100 µM.

As for `Clc1ccc(CSc2cccc3[nH]ccc23)cc1Cl` [I-191], the IC50 was over 100 µM.

As for `OCc1nc2c(Oc3ccccc3)cc(Cl)cc2[nH]1` [I-404], the half-maximal inhibitory concentration (IC50) was over 100 µM.

Regarding `Nc1ncncc1COc1c(Cl)c(Cl)cc2[nH]c(CO)nc12` [I-409], the IC50 is over 100 µM.

Turning to `Cn1ccc2c(Oc3ccc(Cl)cc3)cccc21` [I-268], the IC50 is over 100 µM.

With `OCc1cc2c(Oc3ccccc3Cl)cccc2[nH]1` [I-276, (4-(2-chlorophenoxy)-1H-indol-2-yl)methanol], the IC50 fell in the range of 100 to 300 µM.

`c1ccc(Sc2cccc3[nH]ccc23)nc1` [I-210]: the 50% inhibitory concentration (IC50) was over 100 µM.

On to `Cn1ccc2c(Oc3cccc(F)c3)cccc21` [I-266], for which the half-inhibitory concentration (IC50) was over 100 µM.

Turning to `OCc1cc2c(OCCc3ccccc3)cc(Cl)cc2[nH]1` [I-279], the IC50 was over 100 µM.

As for `OCc1nc2c(OC[C@H]3CCCC[C@@H]3O)c(Cl)c(Cl)cc2n1Cc1nc[nH]n1` [I-392], the IC50 was over 100 µM.

`Cc1cc(Oc2ccccc2)cc2[nH]c(CO)cc12` [I-238]: the IC50 is over 100 µM.

On to `Clc1ccc(Cc2cccc3[nH]ccc23)cc1` [I-179], for which the IC50 was over 100 µM.

For `Cn1c(CO)cc2c(Oc3ccc(F)cc3)cccc21` [I-273], the IC50 was over 100 µM.

For `OCc1nc2cc(Cl)c(OCc3ccccc3)cc2n1CC(F)(F)F` [I-458], the 50% inhibitory concentration (IC50) is over 100 µM.

`COC(=O)c1cc2c(Sc3ccc(Cl)cc3Cl)cc(Cl)cc2n1Cc1ccc(Br)cc1` [I-104]: the IC50 is over 100 µM.

As for `CCCn1c(CO)nc2cc(Cl)c(OCc3ccccc3)cc21` [I-480], the IC50 is over 100 µM.

Regarding `NC(=O)Cn1c(CO)nc2cc(Cl)c(OCc3ccccc3)cc21` [I-476], the IC50 was over 100 µM.

With `Nc1nccc(COc2c(Cl)c(Cl)cc3[nH]c(CO)nc23)n1` [I-423], the IC50 is over 100 µM.

With `OCc1cc2c(C3CCCNC3)cc(Oc3ccccc3)cc2[nH]1` (centres unmarked) [I-219], the IC50 was over 100 µM.

In the case of `CCn1cnc2cc(OCc3ccccc3)c(Cl)cc21` [I-434, 5-(benzyloxy)-6-chloro-1-ethyl-1H-benzo[d]imidazole], the IC50 is 100 to 300 µM.

Take `Clc1cc2nc(-c3cnon3)n(Cc3ccc(-c4nn[nH]n4)cc3)c2cc1Cl` [I-474, 3-(1-(4-(2H-tetrazol-5-yl)benzyl)-5,6-dichloro-1H-benzo[d]imidazol-2-yl)-1,2,5-oxadiazole]: the IC50 fell in the range of 300 to 800 µM.

For `OCc1cc2ccc(Oc3ccccc3)cc2[nH]1` [I-286, (6-Phenoxy-1H-indol-2-yl)methanol], the IC50 is 300 to 800 µM.

Turning to `Clc1ccc(Sc2cccc3c2ccn3Cc2nc[nH]n2)cc1` [I-196, 1-((1H-1,2,4-triazol-3-yl)methyl)-4-(4-chlorophenylthio)-1H-indole], the IC50 lay within 10 to 100 µM.

Consider `CCCn1c(CO)nc2cc(OCc3ccccc3)c(Cl)cc21` [I-479], for which the IC50 was over 100 µM.

With `OCc1nc2c(Oc3ccccc3Cl)cccc2n1Cc1nc[nH]n1` [I-407, (1-((1H-1,2,4-triazol-3-yl)methyl)-4-(2-chlorophenoxy)-1H-benzo[d]imidazol-2-yl)methanol], the IC50 was over 100 µM.

For the compound `Clc1cc2nc(-c3ccncc3)[nH]c2c(Cl)c1Cl` [I-353, 5,6,7-trichloro-2-(pyridin-4-yl)-1H-benzo[d]imidazole], the IC50 was over 3 µM.

With `N#CCc1nc2c(Oc3ccccc3)c(Cl)ccc2[nH]1` [I-441], the IC50 was over 100 µM.

Take `CCn1c(CO)nc2cc(OCc3ccc(Cl)cc3)c(Cl)cc21` [I-449]: the 50% inhibitory concentration (IC50) is over 100 µM.

Consider `O=S(=O)(c1ccccc1)c1cc(Br)c2cc(CO)[nH]c2c1` [I-230], for which the IC50 was over 100 µM.

The record behind these values is US11339144B2 (Navitor Pharmaceuticals, Inc., priority 2017, dated 2022).
